The text below walks through data of patent US20260374739A1, “SMALL MOLECULAR WEIGHT CHEMICAL COMPOUND TO ANTAGONIZE EPH-EPHRIN TETRAMERIZATION AND INHIBIT BIDIRECTIONAL SIGNALING” (THE BOARD OF REGENTS OF THE UNIVERSITY OF TEXAS SYSTEM, priority 2022, published 2026).

One data set deals with T1, EphB4-Fc with EB2-His (Mus musculus, UniProt P54761).
T1 construct: soluble EphB ectodomains conjugated to Fc from R&D Systems; mouse EB2-His residues 18-232; purchased R&D Systems (EphB-Fc); Sino Biologicals (EphrinB-His)
T1 sequence (P54761 16-539 limits assumed): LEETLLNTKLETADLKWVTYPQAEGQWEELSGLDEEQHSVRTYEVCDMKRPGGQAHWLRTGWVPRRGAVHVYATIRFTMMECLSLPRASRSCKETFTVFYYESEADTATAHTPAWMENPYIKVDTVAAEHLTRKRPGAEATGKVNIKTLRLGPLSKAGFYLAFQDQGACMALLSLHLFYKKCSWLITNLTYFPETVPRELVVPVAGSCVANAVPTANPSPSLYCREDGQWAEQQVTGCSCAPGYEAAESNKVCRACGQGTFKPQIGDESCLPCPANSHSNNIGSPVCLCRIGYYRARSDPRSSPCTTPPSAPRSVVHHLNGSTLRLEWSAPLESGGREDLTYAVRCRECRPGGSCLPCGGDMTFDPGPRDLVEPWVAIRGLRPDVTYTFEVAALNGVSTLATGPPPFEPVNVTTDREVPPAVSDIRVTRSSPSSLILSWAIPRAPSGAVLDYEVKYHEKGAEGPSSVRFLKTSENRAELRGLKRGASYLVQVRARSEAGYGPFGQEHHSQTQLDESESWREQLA
Briefly: Alpha assay EphB4-EB2. It counts as binding. The following applies: for antagonism of EphB4-EB2 interaction: Alpha, ELISA, pulldown. On the procedure:
FIG. 5D depicts results from an alpha assay using EphB2-Fc or EphB4-Fc with EB2-His and increasing A20 concentrations to calculate IC50 determination (~10 μM, similar to that found in FIG. 5C).
Protein interaction assays were developed using soluble EphB ectodomains conjugated to Fc from R&D Systems (e.g., rat EphB1-Fc residues 18-538, which is 99.4% identical to human) and EphrinB ectodomains conjugated to His from Sino Biologicals (e.g., mouse EB2-His residues 18-232, which is 97.7% identical to human). Titrating concentrations of the EphB1-Fc ectodomain (or unconjugated Fc protein as negative control) was added with titrating amounts of the three different EphrinB ectodomains (EB1-His, EB2-His, or EB3-His) with 125 ng each of the Protein A donor, anti-6×-His acceptor beads, 2% DMSO, and 1× HiBlock buffer (all from PerkinElmer) in 384 well plates, and after 3 hr incubation at RT were read in an Envision Multilabel Reader 2102. […] No signal above background (<1,500) was detected for wells that contained an Fc control protein and the EB-His proteins or just the EphB1-Fc protein and no EB-His protein.
A20, E13, and other compounds from the top 32 hits were then characterized in pulldown assays. EphB1-Fc was immobilized onto Protein A agarose beads, then mixed with compounds and the soluble EB2-His ectodomain for 1 hr at RT, after which protein complexes were washed and then bound EB2 was detected by immunoblot using anti-His antibodies.
(In an ELISA, binding on a coated surface is turned into a signal by an enzyme label.)

A short description of the next data set: aqueous solubility. The data set is classed as physicochemical. The following applies: for solubility in water: salt forms. On the procedure:
FIG. 45 depicts tests of salt forms of A20 and A20-1 for aqueous solubility. Compounds were provided to the UT Southwestern PK Core facility and tested for soluble in water. While both are quite soluble, A20 salt was especially so and can be made into a […] solution, whereas A20-I salt can be dissolved into >15% solution.
A study was conducted with A20 salt dissolved solely in PBS and injected at 20 mg/kg to match the previously described study of the free-base. […] The results from the brain, spinal cord, and liver tissues are particularly outstanding and indicate that significant levels of A20 salt remain even after the final collection at 24 hr time point.
To examine the drug-like nature of the disclosed compounds, tests for solubility was conducted.

[1] abbreviates: water, read-out: aqueous solubility.

Read-outs that look alike come from different tables or passages of the source.

In the case of `Oc1c(Cl)cc(CN2CCOCC2)c2cccnc12` [Compound 3, 7-chloro-5-(morpholinomethyl)quinolin-8-ol], the “antagonism of EphB4-EB2 interaction” value at EphB4-Fc with EB2-His is “very little if any effect on the EphB4-EB2 interaction”. For orientation: IC50 means the point on the concentration scale where inhibition reaches its midpoint. Read a high IC50 as lower potency. As for `Oc1c(Br)cc(CN2CCOCC2)c2cccnc12` [Compound 5, 7-bromo-5-(morpholinomethyl)quinolin-8-ol], the IC50 on EphB4-Fc with EB2-His (EphB4-EB2) was more than 150 µM. Further, in “aqueous solubility”, the “solubility in water” value is listed as “extremely soluble in water”. In general, solubility refers to how much of the substance goes into solution per volume. In the case of `Oc1c(Br)cc(CN2CCOCC2)c2cccnc12` [Compound 6, 4-((7-bromo-8-hydroxyquinolin-1-ium-5-yl)methyl)morpholin-4-ium chloride], the solubility in the data set “aqueous solubility” (water or pbs, aqueous buffer, read-out: solubility in water or PBS) was more than 50 mg/mL; in “aqueous solubility” (setting [1]), more than 1000 mg/mL. On to `Oc1c(I)cc(CN2CCOCC2)c2cccnc12` [Compound 7, 7-iodo-5-(morpholinomethyl)quinolin-8-ol], for which the “solubility in water” value in “aqueous solubility” was “extremely soluble in water”.

`Oc1c(I)cc(CN2CCOCC2)c2cccnc12` [Compound 8, 4-((8-hydroxy-7-iodoquinolin-1-ium-5-yl)methyl)morpholin-4-ium chloride]: the solubility in “aqueous solubility” (setting [1]) was more than 150 mg/mL. Take `COc1ccccc1N1CCN(Cc2cc(Br)c(O)c3ncccc23)CC1` [Compound 70, 7-bromo-5-((4-(2-methoxyphenyl)piperazin-1-yl)methyl)quinolin-8-ol]: the “antagonism of EphB4-EB2 interaction” value at EphB4-Fc with EB2-His is given as “very little if any effect on the EphB4-EB2 interaction”.
